# Experiments:
# [1] = Accelerated stability test (ICH guideline), purity of the stored sucralose product by HPLC; assay type: physicochemical; conditions: 40° C. ± 2° C., 60% RH ± 5% RH
# Method: A test and analysis method for the purity of sucralose involved in the present disclosure could refer to the Chinese National Standard “GB25531-2010 for Food Additive Sucralose”.
# Analysis and determination conditions of the purity of sucralose: High-performance liquid chromatograph from Shimadzu, Japan: RID-10A differential refractive index detector, LC-10ADVP high-pressure pump, and CTO-10ASVP incubator; chromatographic column: Agilent XDB C18 column (250 mm×4.6 mm, 5 μm); mobile phase: methanol-0.125% dipotassium phosphate (DKP) aqueous solution (4:6); column temperature: 30° C.; and flow rate: 1.0 mL/min. Methanol (chromatographically pure), DKP (analytically pure), UPW, and sucralose (purity: 99.9%) are required, and a content is determined by an external standard method.
# The products obtained according to Examples 1 to 6 and Comparative Examples 1 to 3 each were subjected to an accelerated stability test.
# [2] = Bulk density determination (50 mL measuring cylinder, free-fall impact until compacted); assay type: physicochemical; conditions: sample compacted in 50 mL measuring cylinder, free-fall impact at 5 cm height
# Method: Determination method of bulk density: A sample of an example is added to a 50 mL measuring cylinder and continuously subjected to free-fall impact at a height of 5 cm until the sample is compacted, and then a mass of the sample is measured to obtain bulk density data.
"Purity after storage, One month [1]","Purity after storage, Six months [1]","Purity after storage, Three months [1]","Purity after storage, Twelve months [1]","Purity after storage, Twenty-four months [1]",Bulk density [2],Compound
99.95%,99.87%,99.92%,99.79%,99.56%,1.109 g/mL,"OC[C@H]1O[C@H](O[C@]2(CCl)O[C@H](CCl)[C@@H](O)[C@@H]2O)[C@H](O)[C@@H](O)[C@H]1Cl [Example 1, sucralose]"
99.63%,99.47%,99.56%,99.26%,98.87%,1.067 g/mL,"OC[C@H]1O[C@H](O[C@]2(CCl)O[C@H](CCl)[C@@H](O)[C@@H]2O)[C@H](O)[C@@H](O)[C@H]1Cl [Example 3, sucralose]"
99.36%,99.05%,99.12%,98.78%,98.42%,0.978 g/mL,"OC[C@H]1O[C@H](O[C@]2(CCl)O[C@H](CCl)[C@@H](O)[C@@H]2O)[C@H](O)[C@@H](O)[C@H]1Cl [Raw material, sucralose]"
99.73%,99.63%,99.69%,99.47%,99.20%,1.021 g/mL,"OC[C@H]1O[C@H](O[C@]2(CCl)O[C@H](CCl)[C@@H](O)[C@@H]2O)[C@H](O)[C@@H](O)[C@H]1Cl [Comparative Example 2, sucralose]"
99.61%,99.51%,99.57%,99.38%,99.12%,0.981 g/mL,"OC[C@H]1O[C@H](O[C@]2(CCl)O[C@H](CCl)[C@@H](O)[C@@H]2O)[C@H](O)[C@@H](O)[C@H]1Cl [Comparative Example 1, sucralose]"
99.74%,99.63%,99.70%,99.51%,99.23%,,"OC[C@H]1O[C@H](O[C@]2(CCl)O[C@H](CCl)[C@@H](O)[C@@H]2O)[C@H](O)[C@@H](O)[C@H]1Cl [Example 6, sucralose]"
99.65%,99.50%,99.59%,99.33%,98.98%,1.056 g/mL,"OC[C@H]1O[C@H](O[C@]2(CCl)O[C@H](CCl)[C@@H](O)[C@@H]2O)[C@H](O)[C@@H](O)[C@H]1Cl [Example 2, sucralose]"
99.85%,99.73%,99.79%,99.60%,99.35%,1.103 g/mL,"OC[C@H]1O[C@H](O[C@]2(CCl)O[C@H](CCl)[C@@H](O)[C@@H]2O)[C@H](O)[C@@H](O)[C@H]1Cl [Example 5, sucralose]"
99.63%,99.50%,99.58%,99.35%,99.04%,0.979 g/mL,"OC[C@H]1O[C@H](O[C@]2(CCl)O[C@H](CCl)[C@@H](O)[C@@H]2O)[C@H](O)[C@@H](O)[C@H]1Cl [Comparative Example 3, sucralose]"
99.94%,99.85%,99.91%,99.73%,99.69%,1.110 g/mL,"OC[C@H]1O[C@H](O[C@]2(CCl)O[C@H](CCl)[C@@H](O)[C@@H]2O)[C@H](O)[C@@H](O)[C@H]1Cl [Example 4, sucralose]"
